Literature values, collected in patent publication US20070099846A1, “Composition containing dipeptide of histidine and alanine for reducing uric acid and method for reducing uric acid using the dipeptide” (LYTONE ENTERPRISE, INC., priority 2003, published 2007).

System: peptidase and proteases excreted from pancreas or other digestive organs

## NCCC(=O)N[C@@H](Cc1cnc[nH]1)C(=O)O [carnosine, β-alanyl-L-histidine]
  Resistance against digestion by peptidase and proteases: resist against digestion
